# Experiments:
# CD40 = assay: Flow cytometry of CD40 on D2SC/1 DC line after CD40L and inhibitors; type: cell-based
# Procedure: FIG. 8A-FIG. 8C show CD40L downregulates and reduces the signaling capacity of CD40. FIG. 8A provides two graphs showing endocytosis inhibition reduces CD40 downregulation. D2SC/1 cell lines were incubated with 250 μM cytochalasin B for 1 hour followed by a 30 min CD40L treatment. D2SC/1 cells were also treated with cytochalasin B, the DMSO solvent control, and CD40L alone. K^+-depletion of the D2SC/1 cell line was also carried out prior to CD40 surface staining and flow cytometry analysis. Only viable cells were gated for analysis. FIG. 8B provides flow cytometry analysis showing inhibition of lysosomal degradation enhances intracellular CD40 levels. D2SC/1 cell lines were incubated with 0.5 μM bafilomycin A inhibitor for 1 hour followed by intracellular staining for CD40 (Total CD40). Total CD40 is compared to surface CD40 fluorescence. FIG. 8C is a graph showing inhibition of endocytosis intensifies the CD40 activation signal in DC Lines. Staining and analysis of surface H-2K^d.
# To initially investigate the potential downregulation of surface CD40 upon ligand engagement, flow cytometric analysis of DC surface expression of CD40 was monitored in the presence and absence of CD40L.
# RelB = assay: Nuclear translocation of RelB by western blot of nuclear lysates of iCD40 D2SC/1 DCs, with pulse-chase; type: cell-based; settings: pulse-chase experiments
# Text: FIG. 2A-FIG. 2F show inducible CD40 initiates a potent NFkB signal in DCs. FIG. 2A is a photograph of an anti-HA Western Blot Analysis of iCD40 D2SC/1 DC Clones. FIG. 2B is a photograph of anti-HA Immunofluorescence of D2SC/1.Hi (lt) and D2SC/1 (rt) FIG. 2C is a graph of results of an NFκB-SEAP Reporter Assay. FIG. 2D is a graph of results and a photograph that show induction of RelB and Sp1 in D2SC/1.Hi by AP20187. FIG. 2E is a graph of results and a photograph of results of assays where maximum concentrations of each agent (based on titrations) were co-incubated with iCD40 D2SC/1 for 24 hrs and nuclear lysates were analyzed by western blot.
# Reporter assays were carried out in these cell lines to determine whether iCD40 could also induce NFκB activation in DCs. […] Several studies have identified that the RelB subunit of NFκB plays a significant role in the DC maturation program (Pettit 1997; Martin 2003). […] Therefore, as a surrogate marker for DC activation, the nuclear translocation of RelB was analyzed by western blot in iCD40 DCs exposed to log dilutions of AP20187 (FIG. 2D).
# DC activation potency of iCD40 was compared with other traditional DC maturation stimuli, such as LPS, TNFα, anti-CD40 mAb, and CD40L. […]
# [1] = test system: syngeneic lymph node (LN)-derived cells; assay: Mixed lymphocyte reaction, 3H-thymidine T cell proliferation with mitomycin C-treated D2SC/1 DCs; type: cell-based; settings: purified CD8+ T cells from LN tissue (>95%), no CD4+ help
# Procedure: The initial approach to the determination of the T cell stimulation capacity of iCD40 DCs involved the co-incubation of mitomycin C-treated D2SC/1 DCs with syngeneic lymph node (LN)-derived cells in vitro. This mixed lymphocyte reaction (MLR) assay measured the ability of iCD40 DCs to induce a syngeneic T cell proliferative response to bovine serum-derived xenogeneic antigens (FIG. 3C). […] In order to investigate whether this T cell activation effect was dependent on CD4+ T cell help, CD8+ T cells from LN tissue (>95%) were purified and the ^3H-thymidine-based proliferation assay was repeated (FIG. 3C). […] Furthermore, the CD4+-depletion data inferred that the iCD40 receptor may be capable of substituting for CD4+ T cell help in DC-based vaccination strategies.
# IL-12 = assay: Intracellular cytokine staining of IL-12 in BMDCs; type: cell-based, C57BL/6 mice; settings: decreased thereafter
# Text: A viral region E1 and E3-deleted, replication-deficient type 5 adenoviral vector was engineered to express both iCD40 and EGFP under the control of the CMV early/immediate promoter/enhancer. Ad-iCD40-GFP successfully transduced and expressed the iCD40 transgene, as well as the EGFP marker, in purified BMDCs (FIG. 5A,B). […] The effects of Ad-iCD40-GFP on BMDCs were studied by using intracellular cytokine staining to evaluate DC expression of the TH1-polarizing cytokine, IL-12. The results confirmed numerous previous reports that an empty adenoviral vector can contribute to background fluorescence readings by stimulating the production of low levels of this cytokine (FIG. 5D) (Korst 2002).
# iCD40-IICD40 DC lines = assay: iCD40-IICD40 double-stable D2SC/1 DC lines, western blot and H-2K^d surface expression; type: cell-based; settings: IICD40-expressing lines vs empty vector control
# Text: FIG. 9A-FIG. 9D show iCD40 circumvents negative feedback inhibition by the Type II CD40 (IICD40) isoform. FIG. 9A is a schematic of Type I, II, and iCD40. […] The type II CD40 isoform was rt-PCR amplified from purified BMDCs, subcloned into a pEF-1α-driven myc-tagged ZeoR vector, and transfected into iCD40-expressing D2SC/1 cells. Double clonal stable lines were generated by G418/zeocin selection and limiting dilution. Resulting lines were screened for IICD40 expression by anti-myc western blot and analyzed for iCD40 expression by anti-HA western blots. FIG. 9C is a graph showing that Type II CD40 down-regulates surface expression of Type I CD40 in DC Lines. Empty vector control and IICD40-expressing D2SC/1 lines were analyzed for their surface expression of CD40 by flow cytometry. Only viable cells were gated for analysis. FIG. 9D provides two graphs showing the Type II CD40 isoform downmodulates Type I CD40 signaling, but not iCD40 signaling. iCD40-IICD40-expressing D2SC/1 cell lines were cultured in the presence of increasing concentrations of CD40L and the AP20187 drug followed by surface staining and flow analysis of H-2K^d. […]
# To expand upon these findings, the effects of CD40L and AP20187 titrations on each of the IICD40 lines were analyzed based on the hypothesis that IICD40-mediated type I CD40 downregulation should blunt the DC response to CD40L but not to AP20187 (FIG. 9D).
molecule,measurement,setting,value
C=C1[C@@H](C)[C@H]2[C@H](Cc3ccccc3)NC(=O)[C@]23OC(=O)/C=C/[C@H](O)CCC[C@@H](C)C/C=C/[C@H]3[C@@H]1O [cytocholasin B],sensitivity of CD40L-induced CD40 downregulation to inhibitor,CD40; endocytosis inhibitor,sensitive
TNFα,duration of RelB induction,RelB,24 h
balifomycin A1,total CD40 levels (intracellular staining),CD40; endosomal H^+ATPase inhibitor,enhanced total CD40 levels
lipopolysaccharide [LPS],CD8+ T cell proliferation,[1],failed to circumvent the requirement for CD4+ T cell-derived helper signals
same,time of peak IL-12p70/p40 synthesis,IL-12,8 h
CD40L: CD40 ligand (protein) MIETYNQTSPRSAATGLPISMKIFMYLLTVFLITQMIGSALFAVYLHRRLDKIEDERNLHEDFVFMKTIQRCNTGERSLSLLNCEEIKSQFEGFVKDIMLNKEETKKENSFEMQKGDQNPQIAAHVISEASSKTTSVLQWAEKGYYTMSNNLVTLENGKQLTVKRQGLYYIYAQVTFCSNREASSQAPFIASLCLKSPGRFERILLRAANTHSSAKPCGQQSIHLGGVFELQPGASVFVNVTDPSQVSHGTGFTSFGLLKL,surface CD40 mean fluorescence intensity,"CD40; D2SC/1 DC line, rapid kinetics",promptly reduced the mean fluorescence intensity of CD40
same,MHC class I H-2K^d surface expression dose-response,iCD40-IICD40 DC lines,elevated amounts of CD40L were required to initiate signaling through the CD40 axis
same,time of peak IL-12p70/p40 synthesis,IL-12,8 h
